Legend:
Assay type in all cases: in vivo
[1] = tested on: hallucinogen-induced head-twitching response in mice; assay: DOI-induced head-twitching response in mice after oral administration once a day for 14 days; details: oral once a day for 14 days, DOI 1 mg/kg i.p.
Description: (§1) Four-week-old ICR male mice (17-19 g) were purchased from Japan SLC, Inc. and subjected to the experiment after an acclimatization period of a week. The animals were kept at a room temperature of 23±2° C. at a humidity of 55±10% in a 12-hour cycle of turning on the light at 8:00 and turning off the light at 20:00. The experimental animals were allowed to drink water and eat freely during the period of the experiment.
(§2) In a physiological saline solution, (+/−) 2,5-dimethoxy-4-iodoamphetamine (DOI: sigma Lot 0.012M4812V), which is a hallucinogen, was dissolved. Immediately after intraperitoneally injecting the solution to the mice at 1 mg/kg, the mice were moved to a breeding cage without a floor mat. After five minutes, the numbers of head-twitches of the mice (used as an indicator of a hallucinatory symptom) were counted for five minutes (Egashira et al., Repeated administration of Yokukansan inhibits DOI-induced head-twitch response and decreases expression of 5-hydroxytryptamine (5-HT) 2A receptors in the prefrontal cortex., Prog Neuropsychopharmacol Biol Psychiatry., 32, 1516-1520, 2008). In this regard, to exclude the influence of external noise or the like on the behavior of the mice, the head-twitches were counted in a soundproof chamber.
Similar ICR male mice to those used in Test 1 were randomly divided into eight groups including a normal group, a control group and six test groups. A 0.5% CMC-Na solution was orally administered to the normal group and the control group once a day for 14 days, and the atractylodes rhizome extract at different doses (20, 100 and 500 mg/kg) and the atractylodes lancea rhizome extract at different doses (20, 100 and 500 mg/kg), which were each prepared using a 0.5% CMC-Na solution, were orally administered to the six test groups once a day for 14 days. One hour after the completion of the final oral administration, 1 mg/kg of DOI was intraperitoneally injected to the mice of the control group and the test groups. Then, the head-twitches of the mice were counted in a similar manner as in Test 1. The results of the measurement were tested by the Dunnett's test using one-way analysis of variance for the comparison between multiple groups. Here, when p<0.05, it was determined that the result attained statistical significance.
The anti-hallucination actions of atractylenolide III and β-eudesmol were examined by the same method as that of Test 2 except for the points which are especially specified. In this test, atractylenolide III purified in Example 1 and commercial β-eudesmol (Lot. WEG2032, Wako Pure Chemical Industries, Ltd.) were dissolved in corn oil and used. The doses were set based on the average amounts of the compounds contained in the crude drugs and on the doses used in Test 2. Specifically, the doses of atractylenolide III were set at 0.03, 0.15 and 0.7 mg/kg, and the doses of β-eudesmol were set at 0.4, 2.0 and 10 mg/kg.
The anti-hallucination actions of atractylone and atractylenolide II were examined by the same method as that of Test 2 except for the points which are especially specified. In this test, atractylone and atractylenolide II purified in Example 1 were dissolved in corn oil and used. The doses of atractylone were set at 0.36, 1.8 and 9.0 mg/kg, and the doses of atractylenolide II were set at 0.03, 0.15 and 0.75 mg/kg.
The anti-hallucination action of atractylenolide I was examined by the same method as that of Test 2 except for the points which are especially specified. In this test, atractylenolide I purified in Example 1 was dissolved in corn oil and used. The doses of atractylenolide I were set at 0.03, 0.15 and 0.75 mg/kg.

[2] = tested on: hallucinogen-induced head-twitching response in mice; assay: DOI-induced head-twitching response in mice after single application (one oral administration); details: single oral application, 0.03, 0.15 and 0.75 mg/kg, DOI i.p. after one hour, FIG. 7
Description: as §2
Similar ICR male mice to those used in Test 1 were randomly divided into eight groups including a normal group, a control group and six test groups. A 0.5% CMC-Na solution was […], and the atractylodes rhizome extract at different doses ([…]) and the atractylodes lancea rhizome extract at different doses ([…]), which were each prepared using a 0.5% CMC-Na solution, […] […] Then, the head-twitches of the mice were counted in a similar manner as in Test 1. […] Here, when p<0.05, it was determined that the result attained statistical significance. […]

[3] = tested on: head-twitches of mice; assay: Production of hallucination model mouse with DOI; details: 1 mg/kg intraperitoneally, counted for five minutes after five minutes
Description: as §1, §2

C=C1CCC[C@]2(C)C[C@]3(O)OC(=O)C(C)=C3C[C@@H]12 [atractylenolide III]
number of head-twitches as compared to the control group ([1]; 0.15 mg/kg in corn oil): decreased significantly | number of head-twitches as compared to the control group ([1]; 0.7 mg/kg in corn oil): decreased significantly | number of head-twitches versus the control group [2]: no significant difference

C=C1CCC[C@]2(C)Cc3occ(C)c3C[C@@H]12 [atractylone]
number of head-twitches as compared to the control group ([1]; 9.0 mg/kg in corn oil): decreased significantly

C=C1CCC[C@]2(C)C=C3OC(=O)C(C)=C3C[C@@H]12 [atractylenolide I]
number of head-twitches as compared to the control group ([1]; 0.15 mg/kg in corn oil): decreased significantly | number of head-twitches as compared to the control group ([1]; 0.75 mg/kg in corn oil): decreased significantly

C=C1CCC[C@]2(C)CC[C@@H](C(C)(C)O)C[C@@H]12 [β-eudesmol]
number of head-twitches as compared to the control group ([1]; 10 mg/kg in corn oil): decreased significantly

COc1cc(CC(C)N)c(OC)cc1I (racemic) [DOI, (+/−) 2,5-dimethoxy-4-iodoamphetamine]
numbers of head-twitches compared with normal mice [3]: higher

atractylenolide II
number of head-twitches as compared to the control group ([1]; 0.75 mg/kg in corn oil): decreased significantly

From US20170189465A1, “Anti Hallucination Drug” (Kracie Pharma, Ltd., priority 2014, published 2017)
